The test system of assay [1] is Androgen Receptor. As to the kind of experiment: Androgen receptor ELISA assay (AR degradation) in LNCaP and/or VCaP cells. It counts as cell-based. Particulars: AR PROTACs. On the procedure: Compounds have been evaluated in this assay in LNCaP and/or VCaP cells utilizing similar protocols. The protocols used with VCaP cells are described below. The androgen receptor ELISA assay was performed using PathScan AR ELISA (Cell Signaling Catalog #12850) according to the following assay steps:
VCaP cells are seeded at 30,000 cells/well at a volume of 200 μL/well in VCaP assay medium [Phenol red free RPMI (Gibco Cat #11835-030); 5% Charcoal Stripped (Dextran treated) FBS (Omega Scientific, Cat # FB-04); Pen/Strep Life Technologies (Gibco Cat #: 10378-016); 0.1 nM R1881 (Sigma, Cat # R0908) is added upon the start of the assay, not during initial plating of the cells) in Corning 3904 plates. The cells are grown for a minimum of 3 days.
(2)(i) Make 10× stock plate in media; (ii) transfer 2.5 μL of the 1000× stock to a new 10× stock plate (use 12 channel pipet, start at A (DMSO control) work thru H. When 247.5 μL of media is added to this plate, it will serve as a 10× stock; (iii) make media+1 nM R1881 for making 10× stock plate; (iv) add 247.5 μL of media with 1 nM R1881 to each well of the 10× stock plate, mix.
Then 22 μL of 10× stock is added to cells and incubated for 24h. 1× Cell Signaling Cell lysis buffer is made (Catalogue #9803; comes with the kit)—prepare for 50 μL/well. Keep on ice. Media is aspirated, and 50 μL 1× cell lysis buffer/well is added. The cells are placed on ice for 10 minutes. The solution is mixed and transferred to PCR plate, and centrifuged at 4 C for 10 minutes at 4000 rpm.
5 μL is transferred to fresh plate (use immediately or freeze −80 C); 115 μL ELISA Dilutant is added (0.15 ug/ml-0.075 ug/ml; comes with the PathScan ELISA).
Add 100 μL/well AR Elisa; cover and shake, 37 C for 2 hrs; dump, tap, wash 4×200 μL ELISA wash buffer; add 100 μL/well mouse AR detection Ab; cover and shake, 37 C for 1 hr; dump, tap, wash 4×200 μL ELISA wash buffer; add 100 μL/well anti-mouse—HRP conjugated Ab (comes with the kit); cover and shake, 37 C for 30 min; allow TMB reagent to come to RT; dump, tap, wash 4×200 μL Elisa wash buffer; tap; add 100 μL TMB, shake 5 min—while watching color. Add the stop reagent when light blue color develops. Add 100 μL Stop solution; shake and read at 450 nm.
The results presented in Table 3 were generated using the androgen receptor ELISA Assay described above, where compound potencies were characterized in highest percentage of Androgen Receptor degradation (Dmax) observed.

The subject of assay [2] is BRD4. As to the kind of experiment: BRD4 c-myc ELISA assay in 22RV-1 cells. It counts as cell-based. The following applies: 18 hrs. Here is the method: 22RV-1 cells were seeded at 30,000 cells/well at a volume of 75 μL/well in RPMI +10% FBS media in 96-well plates and grown overnight at 37 C. Cells were dosed with compounds at 4× concentration diluted in 0.4% DMSO; compounds were serially diluted 1:3 for 8-point dose curve. 25 ul of compound was added to cells for a final concentration starting at 300 nM-0.3 nM in 0.1% DMSO and incubated for 18 hrs. Media was aspirated, cells washed 1× with PBS and aspirated. Cells were lysed in 50 ul RIPA buffer (50 mM Tris pH8, 150 mM NaCl, 1% Tx-100, 0.1% SDS, 0.5% sodium deoxycholate) supplemented with protease and phosphatase inhibitors. Plates were incubated on ice for 15 minutes then centrifuged at 4° C. for 10 min at 4000 rpm. Added 50 ul of cleared lysate from 96-well assay plate into 96-well c-myc ELISA plate (Novex, Life Technologies Catalog # KH02041). […] The rest of the assay was performed following the protocol from the c-myc ELISA kit. Data was analyzed and plotted using GraphPad Prism software.

Assay [3] has as its target His-tagged VHL protein (Homo sapiens (Human), UniProt P40337). Put plainly: Surface plasmon resonance (SPR) assay. Particulars: average of at least N=2, 1:1 fitting. It is filed as binding. Here is the method: The surface plasmon resonance (SPR) experiments were conducted on a Biacore3000 (GE Healthcare). His-tagged VHL protein was immobilized on a carboxymethylated dextran surface with nitriloacetic acid (NTA), taking advantage of NTA/Ni^2+ chelation. The prepared surface was allowed to equilibrate over three hours in running buffer (Ambion 1×PBS buffer @ pH 7/4, 0.005% Tween, 2% DMSO).
All compounds were prepared in 100% DMSO stock plates with a top concentration of 5 mM in a 3× serial dilution. Compounds were transferred from the stock plate to the assay plate and diluted into running buffer containing no DMSO. All compounds were run as a six-concentration series with a final assay top concentration of 100 uM. Data analysis was performed in Scrubber 2 (BioLogic software, Campbell, Australia). Blanks were subtracted and data was corrected for DMSO using a standard DMSO curve.
Table 2 illustrates VHL inhibition data (i.e., Kd, μM) of examples contained herein in a surface plasmon resonance (SPR) assay.

Assay [4] relates to LNCap and VCaP cells. As to the kind of experiment: Apoptosis, cell death and anti-proliferation in LNCaP and VCaP cell systems. It is filed as cell-based. Particulars: increasing concentrations of AR agonist R1881 and cells containing the AR F876L mutation.

Experimental findings from patent publication US10730870B2, “Compounds and methods for the enhanced degradation of targeted proteins” (Arvinas, Inc., priority 2015, dated 2020) are described below.

Chain of His-tagged VHL protein (P40337 whole entry, looked up): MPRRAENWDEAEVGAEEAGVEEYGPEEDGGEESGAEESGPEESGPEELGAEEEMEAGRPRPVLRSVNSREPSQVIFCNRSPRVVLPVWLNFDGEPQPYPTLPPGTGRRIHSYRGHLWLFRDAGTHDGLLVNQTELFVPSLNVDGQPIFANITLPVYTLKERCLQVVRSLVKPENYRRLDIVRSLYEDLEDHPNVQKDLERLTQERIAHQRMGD
Chain of His-tagged VHL protein (Q15370 whole entry partner, looked up): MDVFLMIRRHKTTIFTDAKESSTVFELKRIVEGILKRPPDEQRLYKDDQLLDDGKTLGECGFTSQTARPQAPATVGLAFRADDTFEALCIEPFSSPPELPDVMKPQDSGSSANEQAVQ
Chain of His-tagged VHL protein (Q15369 whole entry partner, looked up): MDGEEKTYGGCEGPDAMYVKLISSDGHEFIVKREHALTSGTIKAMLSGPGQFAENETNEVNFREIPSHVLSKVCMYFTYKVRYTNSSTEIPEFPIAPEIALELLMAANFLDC

For the compound `Cc1ncsc1-c1ccc([C@H](C)NC(=O)[C@@H]2C[C@@H](O)CN2C(=O)[C@H](C(C)C)n2cc(-c3ccnc(OC4CN(c5ccc(C(=O)N[C@H]6C(C)(C)[C@H](Oc7ccc(C#N)c(Cl)c7)C6(C)C)cn5)C4)c3)cn2)cc1`, the “Dmax (highest percentage of Androgen Receptor degradation)” value in assay [1] is listed as “+++ (51%≤Dmax≤70%)”.
The same measure, in the same setting: in the case of `Cc1ncsc1-c1ccc([C@H](C)NC(=O)[C@@H]2C[C@@H](O)CN2C(=O)[C@H](C(C)C)n2cc(-c3ccnc(OC4CN(c5ncc(C(=O)NC6C(C)(C)C(Oc7ccc(C#N)c(Cl)c7)C6(C)C)cn5)C4)c3)cn2)cc1` (stereo partly shown) it was “+++ (51%≤Dmax≤70%)”.
The same measure, in the same setting: the result for `Cc1ncsc1-c1ccc([C@H](C)NC(=O)[C@@H]2C[C@@H](O)CN2C(=O)[C@H](C(C)C)n2cc(OCCCOCCC(O)CCOc3ccc(N4C(=S)N(c5ccc(C#N)c(C(F)(F)F)c5)C(=O)C4(C)C)cc3)cn2)cc1` (stereo partly shown) reads “+++ (51%≤Dmax≤70%)”; that for `Cc1ncsc1-c1ccc(CNC(=O)[C@@H]2C[C@@H](O)CN2C(=O)C(C(C)C)n2cc(OC3CCN(c4ccc(-c5ccc(N6C(=S)N(c7ccc(C#N)c(C(F)(F)F)c7)C(=O)C6(C)C)cc5)cn4)CC3)cn2)cc1` (stereo partly shown), “++ (26%≤Dmax≤50%)”.
The same measure, in the same setting: the result for `Cc1ncsc1-c1ccc([C@H](C)NC(=O)[C@@H]2C[C@@H](O)CN2C(=O)[C@H](C(C)C)n2cc(-c3ccnc(N4CCC(Nc5ccc(C(=O)N[C@H]6C(C)(C)[C@H](Oc7ccc(C#N)c(Cl)c7)C6(C)C)cc5)C4)c3)cn2)cc1` (stereo partly shown) reads “++ (26%≤Dmax≤50%)”.
Regarding `Cc1ncsc1-c1ccc([C@H](C)NC(=O)[C@@H]2C[C@@H](O)CN2C(=O)[C@H](C(C)C)n2cc(-c3ccnc(O[C@H]4C[C@H](NC(=O)C[C@@H]5N=C(c6ccc(Cl)cc6)c6c(sc(C)c6C)-n6c(C)nnc65)C4)c3)cn2)cc1`, in assay [2], the “cMyc Imax” value is given as “++++ (71%≤Imax)”.
On the same count and under the same terms, the result for `Cc1ncsc1-c1ccc([C@H](C)NC(=O)[C@@H]2C[C@@H](O)CN2C(=O)[C@H](C(C)C)n2cc(-c3ccnc(N4CC[C@H](NC(=O)C[C@@H]5N=C(c6ccc(Cl)cc6)c6c(sc(C)c6C)-n6c(C)nnc65)C4)c3)cn2)cc1` reads “++++ (71%≤Imax)”; that for `Cc1ncsc1-c1ccc([C@H](C)NC(=O)[C@@H]2C[C@@H](O)CN2C(=O)[C@@H](C(C)C)n2cc(-c3ccnc(O[C@H]4C[C@H](NC(=O)C[C@@H]5N=C(c6ccc(Cl)cc6)c6c(sc(C)c6C)-n6c(C)nnc65)C4)c3)cn2)cc1`, “+++ (51%≤Imax≤70%)”; that for `Cc1ncsc1-c1ccc([C@H](C)NC(=O)[C@@H]2C[C@@H](O)CN2C(=O)[C@@H](n2cc(-c3ccnc(O[C@H]4C[C@@H](NC(=O)C[C@@H]5N=C(c6ccc(Cl)cc6)c6c(sc(C)c6C)-n6c(C)nnc65)C4)c3)cn2)C(C)(C)C)cc1`, “++++ (71%≤Imax)”.
The same measure, in the same setting: the result for `Cc1ncsc1-c1ccc(CNC(=O)[C@@H]2C[C@@H](O)CN2C(=O)[C@H](C(C)C)n2cc(-c3cccc(O[C@H](C)CNC(=O)C[C@@H]4N=C(c5ccc(Cl)cc5)c5c(sc(C)c5C)-n5c(C)nnc54)c3)cn2)cc1` reads “++++ (71%≤Imax)”.
As usually defined, the Kd is a measure of binding affinity in units of concentration. The low end stands for higher affinity, the high end for lower affinity. In assay [3], `Cc1cc([C@H](C(=O)N2C[C@H](O)C[C@H]2C(=O)N[C@@H](C)c2ccc(-c3scnc3C)cc2)C(C)C)on1` [Example 205, (2S,4R)-4-hydroxy-N-[(1S)-1-[4-(4-methyl-1,3-thiazol-5-yl)phenyl]ethyl]-1-[(2R)-3-methyl-2-(3-methyl-1,2-oxazol-5-yl)butanoyl]pyrrolidine-2-carboxamide] displayed a Kd of 330 nM.
Same read-out and setting: in the case of `CC[C@H](NC(=O)[C@@H]1C[C@@H](O)CN1C(=O)[C@@H](c1cc(C)no1)C(C)C)c1ccc(-c2scnc2C)cc1` [Example 207, (2S,4R)-4-hydroxy-N-[(1S)-1-[4-(4-methyl-1,3-thiazol-5-yl)phenyl]propyl]-1-[(2R)-3-methyl-2-(3-methyl-1,2-oxazol-5-yl)butanoyl]pyrrolidine-2-carboxamide] it was 240 nM.
In the case of `CNC(=O)c1ccc(N2C(=S)N(c3ccc(C#N)c(C(F)(F)F)c3)C(=O)C2(C)C)cc1F` [enzalutamide], the anti-proliferative activity result in assay [4] was “inactive”.
